Consider eleven compounds from patent US20210355107A1, “MULTI-SUBSTITUTED PYRIDONE DERIVATIVES AND MEDICAL USE THEREOF” (Beijing Yuezhikangtai Biomedicines Co., Ltd., priority 2018, published 2021).

One assay deals with T1, kinase Axl (Homo sapiens, UniProt P30530).
T1 construct: purchased Carna 08-107
T1 sequence (P30530 473-894 limits assumed): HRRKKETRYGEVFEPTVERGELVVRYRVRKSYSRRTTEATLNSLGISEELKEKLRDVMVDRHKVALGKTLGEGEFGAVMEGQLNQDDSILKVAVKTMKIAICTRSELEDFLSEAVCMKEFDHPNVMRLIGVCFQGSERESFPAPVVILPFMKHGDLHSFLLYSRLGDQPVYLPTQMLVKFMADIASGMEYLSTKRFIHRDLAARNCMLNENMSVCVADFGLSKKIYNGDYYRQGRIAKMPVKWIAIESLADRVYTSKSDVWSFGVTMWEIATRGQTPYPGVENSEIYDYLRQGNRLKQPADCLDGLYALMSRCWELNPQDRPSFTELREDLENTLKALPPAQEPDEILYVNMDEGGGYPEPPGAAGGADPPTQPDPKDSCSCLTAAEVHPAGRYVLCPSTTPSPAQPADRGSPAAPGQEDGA
The experiment in a line: Mobility shift assay, inhibitory activity against kinase Axl. It counts as biochemical. The conditions noted are these: ATP at Km (81 μM), average of two independent experiments. Here is the method:
(§1) In this test, mobility shift assay was used to test the inhibitory activity of compounds when ATP concentrations correspond to the Km of the kinases.
(§2) The concentration of test compound was 10-fold diluted from an initial concentration of 10 μM. The test result (IC50) was the average of two independent experiments.
(§3) For example, a compound at an initial concentration of 10 μM was adjusted to 500 μM with 100% DMSO, then serially diluted for 10 concentrations, and then subjected to 10-fold dilution with the buffer to prepare a diluted compound intermediate containing 10% DMSO, 5 μL of which was transferred to the 384-well plate.
(§4) 10 μL of the two enzyme solutions each was added to the 384-well plate and co-incubated with the compound for 10-15 min at room temperature.
(§5) 10 μL of the diluted substrate was added to the 384-well plate to initiate the reaction, which lasts for 1 h at 28° C.
(§6) 5) The conversion rate was read by Caliper Reader (Perkin Elmer) and the inhibition rate was calculated as the average of two tests.
(§7) 6) IC50 values were fitted with XL-fit software.

The next assay deals with T2, kinase c-MET (Homo sapiens, UniProt P08581).
T2 construct: purchased Carna 08-151
T2 sequence (P08581 956-1390 limits assumed): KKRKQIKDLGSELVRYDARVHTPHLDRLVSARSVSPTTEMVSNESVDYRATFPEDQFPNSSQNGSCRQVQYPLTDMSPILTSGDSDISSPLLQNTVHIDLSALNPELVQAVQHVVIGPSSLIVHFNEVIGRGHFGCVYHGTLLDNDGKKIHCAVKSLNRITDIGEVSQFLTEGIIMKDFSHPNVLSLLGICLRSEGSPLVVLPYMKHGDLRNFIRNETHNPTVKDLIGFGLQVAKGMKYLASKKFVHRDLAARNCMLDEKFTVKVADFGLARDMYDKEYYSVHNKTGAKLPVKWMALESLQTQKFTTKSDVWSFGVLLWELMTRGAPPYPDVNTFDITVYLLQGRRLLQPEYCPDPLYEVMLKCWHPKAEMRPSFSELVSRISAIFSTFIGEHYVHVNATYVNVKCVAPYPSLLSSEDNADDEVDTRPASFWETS
The experiment in a line: Mobility shift assay, inhibitory activity against kinase c-MET. It counts as biochemical. The conditions noted are these: ATP at Km (35 μM), average of two independent experiments. As to the method:
as §1, §2, §3, §4, §5, §6, §7

The next assay has as its system EBC-1 cells. The experiment in a line: EBC-1 cell proliferation, CellTiter-Glo Luminescent Cell Viability Assay. The conditions noted are these: Homo sapiens, 72 h incubation, read-out: IC50 (nM) against EBC-1 cells. In kind it is cell-based. As to the method: Test Example 3: Inhibitory Activity of Compounds disclosed herein against EBC-1 Cells
Test method: the inhibitory activity of the compounds against EBC-1 cell proliferation was evaluated using CellTiter-Glo® Luminescent Cell Viability Assay Kit (Promega).
Test procedures: when thawing EBC-1 cells, the cell cryopreservation tube was shaken rapidly in a water bath at 37° C. to thaw the cells in 1 min. The cell suspension after thawing was mixed with RPMI1640 culture medium containing 10% FBS and centrifuged for 5 min at 1000 rpm, and the supernatant was discarded. The cell pellet was suspended in 5 mL of complete culture medium. The suspension was placed in a cell culture flask with a bottom area of 25 cm^2, and cultured in a cell incubator at 37° C./95% humidity/5% CO2. Cell passage was performed when cell confluence reached about 80%. When the cells were passaged, the original cell suspension was directly made uniform by pipetting. 1/6 of the cell suspension was kept, added with 5 mL of new complete culture medium and then made uniform by pipetting. The cell culture flask was then placed in a cell incubator for further culturing. Cell plating was performed when the cell confluence reached about 80% again. With reference to the method for cell passage, 1/6 cell suspension was kept for further culturing when the cells were plated, and the remaining 5/6 of cell suspension was placed in a 15 mL centrifuge tube. Cell viability was detected by trypan blue exclusion using an IC1000 cell counter (Countstar) to ensure that cell viability was above 90%. Cell suspension at a density of 3.33×10^4 viable cells/mL was prepared using complete culture medium, and 90 μL of the cell suspension was added into 96-well cell culture plates, so that the cell density in the cell culture plates (day 0 plate and test compound plate) was 3000 viable cells/well. A control group that contains no cell or compound but only complete culture medium and a control group that contains no compound but cells were set. The cell plates were incubated overnight in a cell incubator. […] 10 μL of the above solution was added into a corresponding cell culture plate to ensure that the initial concentration of the compound was 10 μM, the dilution factor of adjacent concentration was 3.16, and the DMSO content in the cell culture plate was 0.1%. The cell plates were then incubated in the cell incubator for 72 h. During detection, CellTiter-Glo reagent (namely CellTiter-Glo® […] cell viability test reagent, Promega, Cat. No. G7572, Lot. No. 0000310975) was melted, and the cell plate was equilibrated at room temperature for 30 min. The cell plate was added with the CellTiter-Glo reagent at 100 μL per well, and then shaken on a QB-9001 microporous quick shaker (Kylin-Bell) for 5 min to fully lyse the cells. The cell plate was left to stand at room temperature for 20 min to stabilize luminescence signals, and the luminescence value of each well was scanned by a Spectramax M3 multi-functional microplate reader (Molecular Devices) at full wavelength.
Test samples: example compounds of the present invention and cabozantinib (positive control compound).
Data analysis: cell viability was calculated for compounds at various concentrations using the following formula:
Cell viability(%)=(Lumtest compound−Lumculture solution control)/(Lumcell control−Lumculture solution control)×100%,
where Lum refers to the luminescence value of each well of the test compound plate read by the multi-functional microplate reader.
The data were analyzed using GraphPad Prism 7.0 software, fitted with nonlinear S-curve regression to give dose-response curves, and IC50 values were calculated therefrom.
In general terms: ATP-based viability assays read luminescence as a measure of living cells.

One may read the IC50 as the concentration that inhibits the measured activity by half.

In the case of `N#Cc1c(-c2ccc(F)cc2)c(=O)c(C(=O)Nc2ccc(-c3cc(-c4cnn(C5CCNCC5)c4)cnc3N)c(F)c2)cn1C1CC1` [Example 11, N-(4-(2-amino-5-(1-(piperidin-4-yl)-1H-pyrazol-4-yl)pyridin-3-yl)-3-fluorophenyl)-6-cyano-5-(4-fluorophenyl)-1-cyclopropyl-4-oxo-1,4-dihydropyridine-3-carboxamide], the IC50 was found to be 0.95 nM at kinase Axl, 10 nM at kinase c-MET and 91 nM with EBC-1 cells.

Take `COc1cc2nccc(Oc3ccc(NC(=O)c4cc(C)c(C#N)n(-c5ccc(F)cc5)c4=O)cc3F)c2cc1OC` [Example 29A, 6-cyano-N-(4-((6,7-dimethoxyquinolin-4-yl)oxy)-3-fluoro-phenyl)-1-(4-fluorophenyl)-5-methyl-2-oxo-1,2-dihydropyridine-3-carboxamide]: the half-inhibitory concentration (IC50) is 3.1 nM on kinase Axl and 82.7 nM with EBC-1 cells.

`CCn1cc(-c2cnc(N)c(-c3ccc(NC(=O)c4cc(C)c(C#N)n(-c5ccc(F)cc5)c4=O)cc3F)c2)cn1` [Example 18, N-(4-(2-amino-5-(1-ethyl-1H-pyrazol-4-yl)pyridin-3-yl)-3-fluorophenyl)-6-cyano-1-(4-fluorophenyl)-5-methyl-2-oxo-1,2-dihydropyridine-3-carboxamide]: the IC50 was 12 nM at kinase Axl, 12 nM on kinase c-MET and 298 nM with EBC-1 cells.

In the case of `CC(C)n1cc(C(=O)Nc2ccc(-c3cc(-c4cnn(C5CCNCC5)c4)cnc3N)c(F)c2)c(=O)n(-c2ccc(F)cc2)c1=O` [Example 20, N-(4-(2-amino-5-(1-(piperidin-4-yl)-1H-pyrazol-4-yl)pyridin-3-yl)-3-fluorophenyl)-3-(4-fluorophenyl)-1-isopropyl-2,4-dioxo-1,2,3,4-tetrahydropyrimidine-5-carboxamide], the IC50 at kinase Axl turned out to be 5.5 nM; at kinase c-MET it was 14 nM; in the assay on EBC-1 cells, 106 nM.

As for `Cn1cc(-c2cnc(N)c(-c3ccc(NC(=O)c4cc(C5CC5)c(C#N)n(-c5ccc(F)cc5)c4=O)cc3F)c2)cn1` [Example 15, N-(4-(2-amino-5-(1-methyl-1H-pyrazol-4-yl)pyridin-3-yl)-3-fluorophenyl)-6-cyano-5-cyclopropyl-1-(4-fluorophenyl)-2-oxo-1,2-dihydropyridine-3-carboxamide], the IC50 on kinase Axl worked out at 6.6 nM; on kinase c-MET, 20 nM; in the assay with EBC-1 cells, 190 nM.

As to `N#Cc1c(C2CC2)cc(C(=O)Nc2ccc(-c3cc(-c4cnn(C5CCNCC5)c4)cnc3N)c(F)c2)c(=O)n1-c1ccc(F)cc1` [Example 12, N-(4-(2-amino-5-(1-(piperidin-4-yl)-1H-pyrazol-4-yl)pyridin-3-yl)-3-fluorophenyl)-6-cyano-5-cyclopropyl-1-(4-fluorophenyl)-2-oxo-1,2-dihydropyridine-3-carboxamide], the results for the IC50 on kinase Axl, on kinase c-MET and in the assay with EBC-1 cells were 2.1 nM, 23 nM and 98 nM, respectively.

Consider `COc1cc2nccc(Oc3ccc(NC(=O)c4cc(C)c(CN)n(-c5ccc(F)cc5)c4=O)cc3F)c2cc1OC` [Example 26, 6-(aminomethyl)-N-(4-((6,7-dimethoxyquinolin-4-yl)oxy)-3-fluorophenyl)-1-(4-fluorophenyl)-5-methyl-2-oxo-1,2-dihydro-1,2-dihydropyridine-3-carboxamide], for which the IC50 was 19 nM on kinase Axl, 19 nM on kinase c-MET and 132 nM in the assay on EBC-1 cells.

As to `COc1cc2nccc(Oc3ccc(NC(=O)C4(C(=O)Nc5ccc(F)cc5)CC4)cc3)c2cc1OC` [Cabozantinib, cabozantinib, reference compound], the IC50 in the assay on EBC-1 cells worked out at 37 nM.

Take `COc1cc2nccc(Oc3ccc(NC(=O)c4cn(C5CCC5)c(C#N)c(-c5ccc(F)cc5)c4=O)cc3F)c2cc1OC` [Example 23, 6-cyano-N-(4-((6,7-dimethoxyquinolin-4-yl)oxy)-3-fluoro-phenyl)-5-(4-fluorophenyl)-1-cyclobutyl-4-oxo-1,4-dihydropyridine-3-carboxamide]: the half-maximal inhibitory concentration (IC50) with EBC-1 cells was 74 nM.

As for `COc1cc2nccc(Oc3ccc(NC(=O)c4cn(C5CC5)c(C#N)c(-c5ccc(F)cc5)c4=O)cc3F)c2cc1OC` [Example 22, 6-cyano-N-(4-((6,7-dimethoxyquinolin-4-yl)oxy)-3-fluoro-phenyl)-5-(4-fluorophenyl)-1-cyclopropyl-4-oxo-1,4-dihydropyridine-3-carboxamide], the concentration for half-maximal inhibition (IC50) on kinase Axl came to 5.9 nM; in the assay with EBC-1 cells, 84 nM.

On to `COc1cc2nccc(Oc3ccc(NC(=O)c4cn(C(C)C)c(C#N)c(-c5ccc(F)cc5)c4=O)cc3F)c2cc1C#N` [Example 25, 6-cyano-N-(4-((6-cyano-7-methoxyquinolin-4-yl)oxy)-3-fluoro-phenyl)-5-(4-fluorophenyl)-1-isopropyl-4-oxo-1,4-dihydropyridine-3-carboxamide], for which the IC50 with EBC-1 cells was determined as 115 nM.
